Measured values: patent US5411933A, “Bromopropargyl quarternary ammonium compounds having antimicrobial activity” (Rohm & Haas Company, priority 1994, dated 1995)

What was measured:
Aspergillus niger = test: minimum inhibitory concentration, broth two-fold serial dilution test, Aspergillus niger; assay type: cell-based, Aspergillus niger ATCC 6275; conditions: for MIC: Aspergillus niger, ATCC6275, Aspergillus niger ATCC 6275, TSB media, lowest concentration with complete inhibition of growth, read-out: MIC (TSB media) Anig; for MIC (TSB media) Anig: Aspergillus niger ATCC 6275, lowest concentration with complete inhibition of growth
Protocol: (§1) Bactericidal and fungicidal evaluations of the compounds of Example 5 were carried out.
(§2) A minimum inhibitory concentration (MIC) value is obtained using a broth, two-fold serial dilution test performed as follows: A stock solution or dispersion of the test compound, typically at a concentration of 1%, is made in a 5:3:2 solvent solution of acetone, methanol, and water. A volume of the stock solution is dispensed into culture media to give an initial starting test concentration of 500 ppm compound.
(§3) When the test is ready to be done, each vessel in the dilution series, except the first vessel, contains an equal volume of compound free broth. The first vessel contains twice the volume of broth with the starting concentration of test compound. One half of the broth from the first vessel is transferred to the second vessel. After being mixed, one half the resulting volume is removed from the second vessel and transferred to the third vessel. The entire cycle is repeated sufficiently to give a series of concentrations amounting to 500, 250, 125, 63, 31, 16, 8 and 4, 2, 1, 0.5, 0.25 ppm respectively.
(§4) Each vessel is then inoculated with a cell suspension of the appropriate test organism. Bacteria are grown in broth, fungi or agar slants for a time and at a temperature appropriate to the species being tested, and algae are a mixture of green algae and blue-green bacteria grown in a nutrient media. At the end of the growth period, in the case of bacteria, the broth is vortexed to disperse the cells.
(§5) In the case of fungi, the spores are harvested by pipetting water onto the slant and dislodging the spores with a sterile loop. The cell/spore suspension is standardized by controlling incubation time, temperature, and the volume of the diluent. The suspension is then used to inoculate the vessels containing the broth compound.
(§6) The vessels are then incubated at the appropriate temperature. After the incubation, the vessels are examined for growth/no growth. The minimum inhibitory concentration (MIC) is defined as the lowest concentration of compounds that results in complete inhibition of growth of the test organism.
3. Aspergillus niger 6275 Anig

Escherichia coli = test: minimum inhibitory concentration, broth two-fold serial dilution test, Escherichia coli; assay type: cell-based, Escherichia coli ATCC 11229; conditions: for MIC: Escherichia coli, ATCC11229, Escherichia coli ATCC 11229, TSB media, lowest concentration with complete inhibition of growth, read-out: MIC (TSB media) Ecol; for MIC (TSB media) Ecol: Escherichia coli ATCC 11229, lowest concentration with complete inhibition of growth
Protocol: as §1, §2, §3, §4, §6

Pseudomonas aeruginosa = test: minimum inhibitory concentration, broth two-fold serial dilution test, Pseudomonas aeruginosa; assay type: cell-based, Pseudomonas aeruginosa ATCC 15442; conditions: for MIC: Pseudomonas aeruginosa, ATCC15442, Pseudomonas aeruginosa ATCC 15442, TSB media, lowest concentration with complete inhibition of growth, read-out: MIC (TSB media) Psae; for MIC (TSB media) Psae: Pseudomonas aeruginosa ATCC 15442, lowest concentration with complete inhibition of growth
Protocol: as §1, §2, §3, §4, §6
1. Pseudomonas aeruginosa

Rhodotorula rubra = test: minimum inhibitory concentration, broth two-fold serial dilution test, Rhodotorula rubra; assay type: cell-based; conditions: lowest concentration with complete inhibition of growth; for MIC: Rhodotorula, TSB media, read-out: MIC (TSB media) Rrub
Protocol: as §1, §2, §3, §4, §5, §6
4. Rhodotorula rubra Rrub

Row | SMILES | MIC (Aspergillus niger) [µg/mL] | MIC (Escherichia coli) [µg/mL] | MIC (Pseudomonas aeruginosa) [µg/mL] | MIC (Rhodotorula rubra) [µg/mL] | MIC (TSB media) Ecol (Escherichia coli) [ppm] | MIC (TSB media) Psae (Pseudomonas aeruginosa) [ppm] | MIC (TSB media) Anig (Aspergillus niger) [ppm] | MIC (TSB media) Rrub (Rhodotorula rubra) [ppm]
1 | CCCCCCCCCCCCCC[N+]1(CC#CBr)CCCC1 [Compound 1, 1-tetradecyl-1-(3-bromopropargyl)-pyrrolidinium 4-methylbenzenesulfonate] | < 4 | 8 | > 500 | < 4 | – | – | – | –
2 | CCCCCCCCCCCCCC[N+]1(CC#CBr)CCOCC1 [Compound 2, 1-tetradecyl-1-(3-bromopropargyl)-morpholinium benzenesulfonate] | < 4 | – | – | < 4 | 8 | 63 | – | –
3 | CCCCCCCCCCCCCC[N+]1(CC#CBr)CCOCC1 [Compound 3, 1-tetradecyl-1-(3-bromopropargyl)-morpholinium 4-methylbenzenesulfonate] | – | – | – | – | 8 | 250 | < 4 | < 4
4 | CCCCCCCCCCCCCC[N+]1(CC#CBr)CCOCC1 [Compound 4, 1-tetradecyl-1-(3-bromopropargyl)-morpholinium methanesulfonate] | – | – | – | – | 32 | 500 | < 4 | < 4
5 | CCCCCCCCCCCCCC[N+]1(CC#CBr)CCCC1 [Compound 5, 1-tetradecyl-1-(3-bromopropargyl)-pyrrolidinium benzenesulfonate] | – | – | – | – | 8 | 500 | < 4 | < 4
6 | CCCCCCCCCCCCCC[N+]1(CC#CBr)CCCCC1 [Compound 6, 1-tetradecyl-1-(3-bromopropargyl)-piperidinium methanesulfonate] | < 4 | – | – | < 4 | > 500 | > 500 | – | –
7 | CCCCCCCCCCCCCC[N+]1(CC#CBr)CCOCC1 [Compound 7, 1-tetradecyl-1-(3-bromopropargyl)-morpholinium n-butanesulfonate] | – | – | – | – | 16 | 500 | < 4 | < 4
8 | CCCCCCCCCCCCCC[N+]1(CC#CBr)CCCC1 [Compound 8, 1-tetradecyl-1-(3-bromopropargyl)-pyrrolidinium n-butanesulfonate] | – | – | – | – | < 4 | 250 | < 4 | < 4
9 | CCCCCCCCCCCCCC[N+]1(CC#CBr)CCOCC1 [Compound 9, 1-tetradecyl-1-(3-bromopropargyl)-morpholinium bromide] | – | – | – | – | 8 | 125 | < 4 | < 4
10 | CCCCCCCCCCCCC[N+]1(CC#CBr)CCOCC1 [Compound 10, 1-tridecyl-1-(3-bromopropargyl)-morpholinium bromide] | 16 | 32 | 250 | < 4 | – | – | – | –

Continued, values first:

Row | MIC (Aspergillus niger) [µg/mL] | MIC (Escherichia coli) [µg/mL] | MIC (Pseudomonas aeruginosa) [µg/mL] | MIC (Rhodotorula rubra) [µg/mL] | MIC (TSB media) Ecol (Escherichia coli) [ppm] | MIC (TSB media) Psae (Pseudomonas aeruginosa) [ppm] | MIC (TSB media) Anig (Aspergillus niger) [ppm] | MIC (TSB media) Rrub (Rhodotorula rubra) [ppm] | SMILES
11 | – | – | 500 | – | 16 | – | < 4 | < 4 | CCCCCCCCCCCCCCCC[N+]1(CC#CBr)CCOCC1 [Compound 11, 1-hexadecyl-1-(3-bromopropargyl)-morpholinium bromide]
12 | 16 | 63 | 500 | < 4 | – | – | – | – | CCCCCCCCCCCC[N+]1(CC#CBr)CCOCC1 [Compound 12, 1-dodecyl-1-(3-bromopropargyl)-morpholinium 4-methylbenzenesulfonate]
13 | – | – | – | – | > 500 | 500 | 16 | 32 | CCCCCCCCCCCCCCCC[N+]1(CC#CBr)CCOCC1 [Compound 13, 1-hexadecyl-1-(3-bromopropargyl)-morpholinium methanesulfonate]
14 | < 4 | < 4 | – | – | – | 125 | – | < 4 | CCCCCCCCCCCCCC[N+]1(CC#CBr)CCCCC1C (centres unmarked) [Compound 14, 1-tetradecyl-1-(3-bromopropargyl)-(2-methyl)piperidinium 4-methylbenzenesulfonate]
15 | – | – | – | – | 5 | 300 | 3.2 | < 1 | CCCCCCCCCCCCCC[N+]1(CC#CBr)CCCCC1C (centres unmarked) [Compound 15, 1-tetradecyl-1-(3-bromopropargyl)-(2-methyl)piperidinium methanesulfonate]
16 | – | – | – | – | 8 | 500 | < 4 | < 4 | CCCCCCCCCCCCCC[N+]1(CC#CBr)CCCCC1C (centres unmarked) [Compound 16, 1-tetradecyl-1-(3-bromopropargyl)-(2-methyl)piperidinium benzenesulfonate]
17 | – | – | – | – | < 4 | 32 | < 4 | < 4 | CCCCCCCCCCCCCC[N+]1(CC#CBr)CCCCC1 [Compound 17, 1-tetradecyl-1-(3-bromopropargyl)-piperidinium benzenesulfonate]
18 | 1.6 | < 4 | 16 | 1.6 | – | – | – | – | CCCCCCCC[N+](CC#CBr)(CCCCCCCC)CCCCCCCC [Compound 18, trioctyl-(3-bromopropargyl) ammonium benzenesulfonate]
19 | < 4 | 16 | 250 | < 4 | – | – | – | – | CCCCCCCC[N+](C)(C)CC#CBr [Compound 19, dimethyloctyl(3-bromopropargyl) ammonium benzenesulfonate]
20 | – | – | – | – | < 4 | 8 | 3.2 | 0.8 | CCCCCCCC[N+](CC#CBr)(CCCCCCCC)CCCCCCCC [Compound 20, trioctyl(3-bromopropargyl) ammonium 4-methylbenzenesulfonate]
21 | 25 | 125 | 500 | – | – | – | – | 12.5 | CCCCCC[N+](CC#CBr)(CCCCCC)CCCCCC [Compound 22, trihexyl(3-bromopropargyl) ammonium benzenesulfonate]
22 | – | – | – | – | 250 | 500 | 50 | < 50 | CCCCCC[N+](CC#CBr)(CCCCCC)CCCCCC [Compound 23, trihexyl(3-bromopropargyl) ammonium 4-methylbenzenesulfonate]
23 | > 50 | 500 | 500 | > 50 | – | – | – | – | CCCCCCCCCCCC[N+](CC#CBr)(CCCCCCCCCCCC)CCCCCCCCCCCC [Compound 24, tridodecyl(3-bromopropargyl) ammonium 4-methylbenzenesulfonate]
